Drawing on US7550485B2, “Substituted N-heterocycle derivatives and methods of their use” (Wyeth, priority 2003, dated 2009), this text covers inhibition and EC50 for 26 molecules.

By inhibition is commonly meant the relative decrease from the control value, in per cent. A lower inhibition goes with little suppression. The term EC50 denotes the concentration needed to bring the measured effect to its halfway point. A lower EC50 goes with a more potent agent.

This assay has as its target T1, hNET (Homo sapiens, UniProt P23975).
T1 construct: expressed in transfected cells
As to the kind of experiment: Norepinephrine (NE) uptake assay in MDCK-Net6 cells stably transfected with human hNET. In kind it is cell-based. Conditions: [3H]NE uptake; for inhibition at 1 µM: MDCK-Net6, 1 μM test compound; for EC50: test range 1 to 10,000 nM. How it is done: MDCK-Net6 cells, stably transfected with human hNET (Pacholczyk, T., R. D. Blakely, and S. G. Amara, Nature, 1991, 350(6316): p. 350-4) were cultured in growth medium containing high glucose DMEM (Gibco, Cat. No. 11995), 10% FBS (dialyzed, heat-inactivated, US Bio-Technologies, Lot FBD1129HI) and 500 μg/ml G418 (Gibco, Cat. No. 10131). Cells were plated at 300,000/T75 flask and cells were split twice weekly. The JAR cell line (human placental choriocarcinoma) was purchased from ATCC (Cat. No. HTB-144). The cells were cultured in growth medium containing RPMI 1640 (Gibco, Cat. No. 72400), 10% FBS (Irvine, Cat. No. 3000), 1% sodium pyruvate (Gibco, Cat. No. 1136) and 0.25% glucose. Cells were plated at 250,000 cells/T75 flask and split twice weekly. For all assays, cells were plated in Wallac 96-well sterile plates (PerkinElmer, Cat. No. 3983498).
Norepinephrine (NE) Uptake Assay
On day 1, cells were plated at 3,000 cells/well in growth medium and maintained in a cell incubator (37° C., 5% CO2). On day 2, growth medium was replaced with 200 μl of assay buffer (25 mM HEPES; 120 mM NaCl; 5 mM KCl; 2.5 mM CaCl2; 1.2 mM MgSO4; 2 mg/ml glucose (pH 7.4, 37° C.)) containing 0.2 mg/ml ascorbic acid and 10 μM pargyline. Plates containing cells with […] of assay buffer were equilibrated for 10 minutes at 37° C. prior to addition of compounds. A stock solution of desipramine was prepared in DMSO (10 mM) and delivered to triplicate wells containing cells for a final test concentration of 1 μM. Data from these wells were used to define non-specific NE uptake (minimum NE uptake). Test compounds were prepared in DMSO (10 mM) and diluted in assay buffer according to test range (1 to 10,000 nM). Twenty-five microliters of assay buffer (maximum NE uptake) or test compound were added directly to triplicate wells containing cells in 200 μl of assay buffer. The cells in assay buffer with test compounds were incubated for 20 minutes at 37° C. To initiate the NE uptake, [^3H]NE diluted in assay buffer (120 nM final assay concentration) was delivered in 25 μl aliquots to each well and the plates were incubated for 5 minutes (37° C.). The reaction was terminated by decanting the supernatant from the plate. The plates containing cells were washed twice with 200 μl assay buffer (37° C.) to remove free radioligand. The plates were then inverted, left to dry for 2 minutes, then reinverted and air-dried for an additional 10 minutes. The cells were lysed in 25 μl of 0.25 N NaOH solution (4° C.), placed on a shake table and vigorously shaken for 5 minutes. After cell lysis, 75 μl of scintillation cocktail was added to each well and the plates were sealed with film tape. The plates were returned to the shake table and vigorously shaken for a minimum of 10 minutes to ensure adequate partitioning of organic and aqueous solutions. The plates were counted in a Wallac Microbeta counter (PerkinElmer) to collect the raw cpm data.
For each experiment, a data stream of cpm values collected from the Wallac Microbeta counter was downloaded to a Microsoft Excel statistical application program. Calculations of EC50 values were made using the transformed-both-sides logistic dose response program written by Wyeth Biometrics Department. The statistical program uses mean cpm values from wells representing maximum binding or uptake (assay buffer) and mean cpm values from wells representing minimum binding or uptake ((1 μM desipramine (hNET) or 1 μM paroxetine (hSERT)). Estimation of the EC50 value was completed on a log scale and the line was fit between the maximum and minimum binding or uptake values. All graphic data representation was generated by normalizing each data point to a mean percent based on the maximum and minimum binding or uptake values. The EC50 values reported from multiple experiments were calculated by pooling the raw data from each experiment and analyzing the pooled data as one experiment.

Counter-ions that a name gives are not always drawn.

T1 sequence (P23975 whole entry): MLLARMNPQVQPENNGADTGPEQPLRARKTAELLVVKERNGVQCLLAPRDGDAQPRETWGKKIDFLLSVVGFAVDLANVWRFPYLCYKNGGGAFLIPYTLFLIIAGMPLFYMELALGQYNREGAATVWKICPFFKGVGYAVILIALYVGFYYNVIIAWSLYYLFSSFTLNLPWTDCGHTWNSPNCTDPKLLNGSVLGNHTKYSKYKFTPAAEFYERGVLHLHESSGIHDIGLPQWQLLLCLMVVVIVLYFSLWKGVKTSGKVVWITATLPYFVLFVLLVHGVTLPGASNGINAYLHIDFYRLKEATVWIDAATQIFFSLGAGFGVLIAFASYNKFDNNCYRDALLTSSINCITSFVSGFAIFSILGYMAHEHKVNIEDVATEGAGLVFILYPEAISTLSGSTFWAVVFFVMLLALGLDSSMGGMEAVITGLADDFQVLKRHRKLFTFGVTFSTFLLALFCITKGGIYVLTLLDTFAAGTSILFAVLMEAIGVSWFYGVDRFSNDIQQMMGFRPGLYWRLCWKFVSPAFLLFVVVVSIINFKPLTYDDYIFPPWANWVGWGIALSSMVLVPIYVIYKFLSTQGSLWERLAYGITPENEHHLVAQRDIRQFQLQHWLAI

In turn, `CN(C)[C@@H]1CCN(CC(c2ccc3ccccc3c2)C2(O)CCCCC2)C1` (stereo partly drawn) [Example 375, 1-[2-[(3R)-3-(dimethylamino)pyrrolidin-1-yl]-1-(2-naphthyl)ethyl]cyclohexanol dihydrochloride] returned an inhibition at 1 µM of 39%.

Regarding `OC1(C(CN2CCC(N3CCCC3)CC2)c2cccc(Cl)c2)CCCCC1` (stereo not shown) [Example 3, 1-[1-(3-chlorophenyl)-2-(4-pyrrolidin-1-ylpiperidin-1-yl)ethyl]cyclohexanol dihydrochloride], the inhibition at 1 µM came out at 100% and the EC50 is 53 nM.

The molecule `CN(C)[C@@H]1CCCN(CC(c2ccc(OCc3ccccc3)c(Cl)c2)C2(O)CCCCC2)C1` (stereo partly drawn) [Example 194, 1-{1-[4-(benzyloxy)-3-chlorophenyl]-2-[(3R)-3-(dimethylamino)piperidin-1-yl]ethyl}cyclohexanol dihydrochloride] had an inhibition at 1 µM of 81.1%.

`CN(C)[C@H]1CCN(CC(c2cccc(Cl)c2)C2(O)CCCCC2)C1` (stereo partly drawn) [Example 199, 1-{1-(3-chlorophenyl)-2-[(3S)-3-(dimethylamino)pyrrolidin-1-yl]ethyl}cyclohexanol dihydrochloride] returned an inhibition at 1 µM of 80.7%.

For `OC1([C@H](CN2CCC(N3CCCCC3)CC2)c2cccc(OC(F)(F)F)c2)CCCCC1` [Example 366, 1-{(1S)-2-(1,4′-bipiperidin-1′-yl)-1-[3-(trifluoromethoxy)phenyl]ethyl}cyclohexanol dihydrochloride], at 1 µM the inhibition was 99% and it took 110 nM to reach a half-maximal effect (EC50).

In turn, `CNC1CCN(C[C@H](c2cccc(OC(F)(F)F)c2)C2(O)CCCCC2)CC1` [Example 359, 1-{(1S)-2-[4-(methylamino)piperidin-1-yl]-1-[3-(trifluoromethoxy)phenyl]ethyl}cyclohexanol dihydrochloride] showed an inhibition at 1 µM of 86% and a 50% effective concentration (EC50) of 290 nM.

Molecule `CN[C@@H]1CCCN(CC(c2cccc(OC(F)(F)F)c2)C2(O)CCCCC2)C1` (stereo partly drawn) [Example 186, 1-[2-{(3R)-3-(methylamino)piperidin-1-yl]-1-[3-(trifluoromethoxy)phenyl]ethyl}cyclohexanol dihydrochloride] had an inhibition at 1 µM of 50.4%.

On to `CC1CCC(O)(C(CN2CCC(N)CC2)c2cccc(Cl)c2)CC1` (stereo not shown) [Example 330, 1-[2-(4-aminopiperidin-1-yl)-1-(3-chlorophenyl)ethyl]-4-methylcyclohexanol dihydrochloride], for which the inhibition at 1 µM is 43.9%.

With `N[C@H]1CCCN(CC(c2cccc(OC(F)(F)F)c2)C2(O)CCCCC2)C1` (stereo partly drawn) [Example 190, 1-{2-[(3S)-3-aminopiperidin-1-yl]-1-[3-(trifluoromethoxy)phenyl]ethyl}cyclohexanol dihydrochloride], at 1 µM the inhibition was 49.9%.

Under “MDCK-Net6, 30 μM test compound (stated in cell)”, `N[C@@H]1CCN(CC(c2cccc3ccccc23)C2(O)CCCCC2)C1` (stereo partly drawn) [Example 377, 1-[2-[(3R)-3-aminopyrrolidin-1-yl]-1-(1-naphthyl)ethyl]cyclohexanol dihydrochloride] displayed an inhibition at 30 µM of 82%.

For the molecule `CN(C)[C@@H]1CCN(CC(c2ccc(OCc3ccccc3)c(Cl)c2)C2(O)CCCCC2)C1` (stereo partly drawn) [Example 384, 1-{1-[4-(benzyloxy)-3-chlorophenyl]-2-[(3R)-3-(dimethylamino)pyrrolidin-1-yl]ethyl}cyclohexanol dihydrochloride], the inhibition at 1 µM came to 88% and the response was half-maximal at 450 nM (EC50).

Regarding `CNC1CCN(C[C@H](c2cccc(Cl)c2)C2CCCCC2)CC1` (single isomer, unassigned) [Example 355, dihydrochloride], the inhibition at 1 µM is 71% and the EC50 is 730 nM.

As to `NC1CCN(CC(c2cccc(Cl)c2)C2CCCCC2O)CC1` (stereo not shown) [Example 239, 2-[2-(4-aminopiperidin-1-yl)-1-(3-chlorophenyl)ethyl]cyclohexanol dihydrochloride], 1 µM produced 81.8% inhibition.

Regarding `CC(C)(O)C(CN1CCC(N)CC1)c1cccc(Cl)c1` (stereo not shown) [Example 273, 4-(4-aminopiperidin-1-yl)-3-(3-chlorophenyl)-2-methylbutan-2-ol dihydrochloride], the inhibition at 1 µM came to 79%.

`CN(C)C1CCN(CC(c2ccc(Cl)c(Cl)c2)C2(O)CCCCC2)CC1` (stereo not shown) [Example 320, 1-{1-(3,4-dichlorophenyl)-2-[4-(dimethylamino)piperidin-1-yl]ethyl}cyclohexanol dihydrochloride]: at 1 µM the inhibition was 88.1%.

Turning to `OC1(C(CN2CCC(N3CCCC3)CC2)c2cccc(Br)c2)CCCCC1` (stereo not shown) [Example 7, 1-[1-(3-bromophenyl)-2-(4-pyrrolidin-1-ylpiperidin-1-yl)ethyl]cyclohexanol dihydrochloride], the inhibition at 1 µM is 96% and a half-maximal response (EC50) required 70 nM.

`OC1(C(CN2CCC(N3CCCC3)CC2)c2cccc(Oc3ccccc3)c2)CCCCC1` (stereo not shown) [Example 316, 1-[1-(3-phenoxyphenyl)-2-(4-pyrrolidin-1-ylpiperidin-1-yl)ethyl]cyclohexanol dihydrochloride] yielded an inhibition at 1 µM of 67.5%.

Molecule `OC1CCN(CC(c2ccc(OCc3ccccc3)c(Cl)c2)C2(O)CCCCC2)CC1` (stereo not shown) [Example 241, 1-[2-[4-(benzyloxy)-3-chlorophenyl]-2-(1-hydroxycyclohexyl)ethyl]piperidin-4-ol hydrochloride] gave an inhibition at 1 µM of 72.5%.

In turn, `CNC1CCN(CC(c2ccc3ccccc3c2)C2(O)CCCCC2)CC1` (stereo not shown) [Example 49, 1-[2-[4-(methylamino)piperidin-1-yl]-1-(2-naphthyl)ethyl]cyclohexanol dihydrochloride] gave an inhibition at 1 µM of 39%.

For `N[C@@H]1CCCN(CC(c2cccc(OC(F)(F)F)c2)C2(O)CCCCC2)C1` (stereo partly drawn) [Example 187, 1-[2-{(3R)-3-aminopiperidin-1-yl]-1-[3-(trifluoromethoxy)phenyl]ethyl}cyclohexanol dihydrochloride], the inhibition at 1 µM is 62.3%.

On to `CN[C@@H]1CCCN(CC(c2ccc(OCc3ccccc3)c(Cl)c2)C2(O)CCCCC2)C1` (stereo partly drawn) [Example 192, 1-{1-[4-(benzyloxy)-3-chlorophenyl]-2-[(3R)-3-(methylamino)piperidin-1-yl]ethyl}cyclohexanol dihydrochloride], for which the inhibition at 1 µM worked out at 88.5%.

In the case of `CN(C)[C@@H]1CCN(CC(c2cccc3ccccc23)C2(O)CCCCC2)C1` (stereo partly drawn) [Example 378, 1-[2-[(3R)-3-(dimethylamino)pyrrolidin-1-yl]-1-(1-naphthyl)ethyl]cyclohexanol dihydrochloride], the inhibition at 1 µM amounted to 28%.

Regarding `CN(C)C1CCN(CC(c2cccc(Cl)c2)C2CCCCC2)CC1` (stereo not shown) [Example 233, 1-[2-(3-chlorophenyl)-2-cyclohexylethyl]-N,N-dimethylpiperidin-4-amine dihydrochloride], the inhibition at 1 µM is 91.1%.

`OC1(C(CN2CCC(N3CCCCC3)CC2)c2cccc(Cl)c2)CCCCC1` (stereo not shown) [Example 2, 1-[2-(1,4′-bipiperidin-1′-yl)-1-(3-chlorophenyl)ethyl]cyclohexanol dihydrochloride] returned an inhibition at 1 µM of 100% and a 50% effective concentration (EC50) of 45 nM.

Regarding `NC1CCN(CC(c2ccc(Cl)c(Cl)c2)C2(O)CCCCC2)CC1` (stereo not shown) [Example 14, 1-[2-(4-aminopiperidin-1-yl)-1-(3,4-dichlorophenyl)ethyl]cyclohexanol dihydrochloride], the inhibition at 1 µM is 84% and it took 89 nM to reach a half-maximal effect (EC50).

`CN[C@H]1CCN(CC(c2ccc3ccccc3c2)C2(O)CCCCC2)C1` (stereo partly drawn) [Example 203, 1-[2-[(3S)-3-(methylamino)pyrrolidin-1-yl]-1-(2-naphthyl)ethyl]cyclohexanol dihydrochloride] came in with an inhibition at 1 µM of 59.2%.
